In this test the test system is Male Sprague Dawley rats. Nature of the test: Charcoal transit model of postoperative ileus (POI) after cecum manipulation. It counts as in vivo, rat. The following applies: for Prevention of POI (in words): delivered via gel to the manipulated intestines; for % GI Transfer: 4 h after oral charcoal meal; for Dose response of the effect on POI (in words): low versus high dose gel formulations. The source says:
The charcoal transit model is an acceptable and established model to study the effects of abdominal surgery on intestinal motility. We followed the procedure as described by De Winter et al. (1997) (Reference: Effect of adrenergic and nitrergic blockade on experimental ileus in rats. British Journal of Pharmacology (1997) 120, 464-468. Benedicte Y. De Winter, Guy E. Boeckxstaens, Joris G. De Man, Tom G. Moreels, Arnold G. Herman & Paul A. Pelckmans). The model simulates the abdominal procedure in human and tests for gastric emptying and intestinal motility by the transfer of a charcoal meal fed to the animals.
Male Sprague Dawley rats, weighing 250-275 g (8 in group) were anesthetized with a xylazine/ketamine cocktail, injected IM, the abdomen was shaved and disinfected with alcohol and Betadyne. A 2.5 cm incision was made from the xyphoid process caudally. The intestinal contents was exteriorized onto wet gauze. The cecum was manipulated gently for 1 minute. The abdominal contents were replaced, the treatment was applied, and the body wall was closed with 4-0 PDS for the fascia and muscle layers. The skin was closed with wound clips. In addition, two control groups were tested as well: incision only and naïve. Treatment groups included two control groups, surgery (incision only) and naïve, and two treatment groups, a high and low dose of Diclofenac, as well as 3 wt % Na-CMC gel alone. The high and low dose of Diclofenac, as well as the 3 wt % Na-CMC gel were prepared as described above. 8 rats were included in each group with a total of 40 rats.
The rats were treated with an oral solution of charcoal (10%) in acacia gum (2%). Four hours following oral administration rats were euthanized with Euthasole. The intestines were exteriorized and the distance traveled by the charcoal meal was measured as well as the full length of the intestines (from the pylorus through the anus). Results are expressed as percent of distance traveled relative to the full length of the intestines.
Male Sprague Dawley rats, weighing 250-275 g (8 in group) were anesthetized with a xylazine/ketamine cocktail, injected IM, the abdomen was shaved and disinfected with alcohol and Betadyne. A 2.5 cm incision was made from the xyphoid process caudally. The intestinal contents was exteriorized onto wet gauze. The cecum was manipulated gently for 1 minute. The abdominal contents were replaced, the treatment was applied, and the body wall was closed with 4-0 PDS for the fascia and muscle layers. The skin was closed with wound clips. In addition, two control groups were tested as well: incision only and naïve. Treatment groups included two control groups, surgery (incision only) and naïve, and 4 treatment groups, a high and low dose of Diclofenac, a high and a low dose of Naproxen, as well as 3 wt % Na-CMC gel alone. The high and low dose of Diclofenac, as well as the 3 wt % Na-CMC gel were prepared as described above. 8 rats were included in each group with a total of 56 rats.

Setting [1] is: Example 2, both doses (0.3 and 2.0 mg) in gel, compared with non-treated and gel-alone animals.
[2] abbreviates: Example 2, high dose 2.0 mg in 3 wt % Na-CMC gel applied after intestinal manipulation.
The mark [3] stands for this setting: Example 2, low dose 0.3 mg in 3 wt % Na-CMC gel applied after intestinal manipulation.

`O=C(O)Cc1ccccc1Nc1c(Cl)cccc1Cl` [Diclofenac-Na, Diclofenac sodium]: the “Dose response of the effect on POI (in words)” value (“Dose response of the effect” below) is “dose related manner”. In addition, the “Prevention of POI (in words)” value (Example 1, high dose, listed as Diclofenac sodium) is recorded as “complete prevention”. Under “Example 1, high dose, listed as diclofenac”, the “Prevention of POI (in words)” value is recorded as “completely alleviated the POI”. Further, the “% GI Transfer” value (Example 1, listed as 'Diclofenac-Na high', dose printed 0.3 mg, in 3 wt % Na-CMC gel applied after intestinal manipulation, distance traveled relative to full intestine length) stood at 73.58%. Moreover, the “% GI Transfer” value (Example 1, listed as 'Diclofenac-Na low', dose printed 1.0 mg, in 3 wt % Na-CMC gel applied after intestinal manipulation, distance traveled relative to full intestine length) stood at 95.05%. In addition, the “Prevention of POI (in words)” value (Example 1, low dose) is recorded as “significant prevention of POI”.

In the case of `O=C(c1ccccc1)c1ccc2n1CCC2C(=O)O` (stereo not drawn) [Ketorolac], the “Dose response of the effect” value is on record as “dose response was not observed”. Moreover, the “Alleviation of POI (in words)” value under setting [1] was “significant alleviation of the POI”. Also, the “% GI Transfer” value under setting [2] turned out to be 69.84%. Further, the “% GI Transfer” value under setting [3] is 70.99%.

As to `COc1ccc2cc([C@H](C)C(=O)O)ccc2c1` [Naproxen], the “Dose response of the effect” value is reported as “dose related prevention of the POI”. In addition, under setting [1], the “Alleviation of POI (in words)” value was “both doses improved on the gastric emptying and intestinal transfer”. Under setting [2], the “% GI Transfer” value amounted to 65.34%. The “Alleviation of POI (in words)” value (Example 2, high dose (2.0 mg) in gel) was “not completely curative”. Also, the “% GI Transfer” value under setting [3] was determined as 56.9%.

These data come from US20090326035A1, “Compositions and Methods for Preventing or Reducing Postoperative Ileus and Gastric Stasis in Mammals” (priority 2006, published 2009).
